Measurements: US8481738B2, “Gonadotropin-releasing hormone receptor antagonists and methods relating thereto” (Neurocrine Biosciences, Inc., priority 2007, dated 2013)
pKi: −log10 of the molar value.

Molecular target: T1, human GnRH receptor (Homo sapiens, UniProt P30968)
T1 construct: expressed in transfected cells; host or cells: RBL cells, stably transfected (in general)
T1 sequence (P30968 1-328): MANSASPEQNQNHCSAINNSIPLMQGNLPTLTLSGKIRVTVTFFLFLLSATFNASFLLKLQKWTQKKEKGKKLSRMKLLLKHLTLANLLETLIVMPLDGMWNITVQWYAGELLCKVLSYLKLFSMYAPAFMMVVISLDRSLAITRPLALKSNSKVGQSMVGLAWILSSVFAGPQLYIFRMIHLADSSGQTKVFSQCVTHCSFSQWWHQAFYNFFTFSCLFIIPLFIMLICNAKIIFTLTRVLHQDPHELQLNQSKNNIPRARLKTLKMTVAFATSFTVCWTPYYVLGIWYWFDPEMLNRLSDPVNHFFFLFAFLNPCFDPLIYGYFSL
Test: Peptide competition radioligand binding displacement assay, human GnRH receptor membranes
Details: one or more of the peptide competition human receptor binding assays
Procedure, shortened: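 Membranes for radioligand binding were prepared from RBL cells stably expressing human GnRH receptor, which were lysed by nitrogen cavitation at 900 psi, 4° C. Membranes from HEK293 cells stably transfected with human receptor were held in 10 mM HEPES pH 7.5, 150 mM NaCl, 0.1% BSA. Transiently transfected COS-7 cells were used for other species.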

pKi, ≥ 7.00:
COc1cccc(C)c1N(C)C(=O)c1cc(-c2cnc(C(F)(F)F)cc2C#N)c(Cl)cc1OCCO [21-7]
Cc1cc(C(F)(F)F)ncc1-c1cc(C(=O)N(C)c2ccccc2CCCC(=O)O)ccc1Cl [14-2]
COc1cc(C)c(-c2cc(C(=O)N(C)c3c(C)cccc3OC)ccc2Cl)cn1 [2-26]
COc1cc(Cl)c(-c2cnc(C(F)(F)F)cc2C#N)cc1C(=O)N(C)c1cc(F)ccc1C [39-11]
COc1cccc(C)c1N(C)C(=O)c1ccc(Cl)c(-c2cnc(C#N)cc2C)c1 [2-34]
CC(C)CCN(C)C(=O)c1cc(-c2cnc(C(F)(F)F)cc2C#N)c(Cl)cc1OCCCC(=O)O [34-23]
COc1cc(Cl)c(-c2cnc(C(F)(F)F)cc2C#N)cc1C(=O)N(C)c1ccccc1OC [38-1, 4-Chloro-5-(4-cyano-6-trifluoromethyl-pyridin-3-yl)-2-methoxy-N-(2-methoxy-phenyl)-N-methyl-benzamide]
CN(C(=O)c1ccc(Cl)c(-c2cnc(C(F)(F)F)cc2C#N)c1)c1cccc(F)c1OCCCC(=O)O [4-12]
CN(C(=O)c1ccc(Cl)c(-c2cnc(C(F)(F)F)cc2C#N)c1)c1ccccc1OCCCC(=O)O [4-10]
COc1ccccc1N(C)C(=O)c1cc(-c2cnc(C(F)(F)F)cc2C#N)c(Cl)cc1OCCCn1ccnc1 [42-11]
COc1ccccc1N(C)C(=O)c1cc(-c2cnc(C(F)(F)F)cc2C#N)c(Cl)cc1OCCCN1C(=O)c2ccccc2C1=O [46-4]
Cc1cccc(OCCCC(=O)O)c1N(C)C(=O)c1ccc(Cl)c(-c2ncc(C(F)(F)F)cc2Cl)c1 [5-3]
Cc1cccc(OCCC(=O)O)c1N(C)C(=O)c1ccc(Cl)c(-c2cnc(C(F)(F)F)cc2C#N)c1 [11-7]
COC(=O)c1ccccc1N(C)C(=O)c1cc(-c2cnc(C(F)(F)F)cc2C#N)c(Cl)cc1OCCCC(=O)O [34-10]
COc1ccccc1N(C)C(=O)c1ccc(Cl)c(-c2nc3ccccc3cc2C=O)c1 [2-48]
COc1cccc(C)c1N(C)C(=O)c1ccc(Cl)c(-c2cnc(C)cc2Cl)c1 [2-27]
COC(=O)CCCOc1cccc(C)c1N(C)C(=O)c1ccc(Cl)c(-c2cnc(C(F)(F)F)cc2C#N)c1 [3-11]
